Here are results for one compound from PMC11562704, “Volatiles extracted from Melaleuca Rugulosa (Link) Craven leaves: comparative profiling, bioactivity screening, and metabolomic analysis” (BMC Complementary Medicine and Therapies, 2024).

This assay has as its target T1, Type 1 collagenase enzyme.
T1 construct: gene colG; native collagenase preparation isolated from the bacterium; type 1 is normally a mixture of ColG and ColH
Put plainly: FALGPA hydrolysis, ninhydrin absorbance at […] nm. Particulars: FALGPA substrate; 50 mM tricine pH 7.4; 37 °C; 20 min preincubation. The class given is biochemical, Hathewaya histolytica.

Converted amounts (≈) assume the structure as drawn.

In the case of `O=C(O)CN(CCN(CC(=O)O)CC(=O)O)CC(=O)O` [EDTA], the “IC50 ± SD (inhibition percentage (IP) ± SD) / Anti-collagenase” value is on record as 315.12 ± 2.21 µg/mL (≈ 1080 µM).
